Results as given in PubChem BioAssay (NCI).
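96-well plates; 48 h exposure; 5 concentrations. Endpoints by linear interpolation between flanking doses. Not reached: highest tested concentration assigned. At the GI50, growth is halved. TGI marks complete inhibition of growth.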

How the values were obtained:
Assay in all cases: NCI anticancer screen, dose series, 48 h
CCRF-CEM leukemia = system: CCRF-CEM leukemia
NCI-H23 lung = system: NCI-H23 lung
IGROV1 ovarian = system: IGROV1 ovarian
MOLT-4 leukemia = system: MOLT-4 leukemia
TK-10 renal = system: TK-10 renal
MCF7 breast = system: MCF7 breast
SF-295 CNS = system: SF-295 CNS
SR leukemia = system: SR leukemia
KM12 colon = system: KM12 colon
A549 NSCLC = system: A549 NSCLC
SK-MEL-28 melanoma = system: SK-MEL-28 melanoma

| Compound | TGI (CCRF-CEM leukemia) | TGI (NCI-H23 lung) | TGI (IGROV1 ovarian) | TGI (MOLT-4 leukemia) | TGI (TK-10 renal) | TGI (MCF7 breast) | TGI (SF-295 CNS) | TGI (SR leukemia) | TGI (KM12 colon) | TGI (A549 NSCLC) | TGI (SK-MEL-28 melanoma) | GI50 (CCRF-CEM leukemia) | GI50 (IGROV1 ovarian) | GI50 (MOLT-4 leukemia) | GI50 (TK-10 renal) | GI50 (MCF7 breast) | GI50 (SF-295 CNS) | GI50 (KM12 colon) | GI50 (SK-MEL-28 melanoma) | GI50 (A549 NSCLC) |
| --- | --- | --- | --- | --- | --- | --- | --- | --- | --- | --- | --- | --- | --- | --- | --- | --- | --- | --- | --- | --- |
| CC(C(=O)NCNC(=O)c1ccccc1)C(=O)NCc1ccccc1 (stereo not drawn) | > 100 µM | > 100 µM | > 100 µM | > 100 µM | > 100 µM | > 100 µM | > 100 µM | > 100 µM | > 100 µM | > 100 µM | – | – | – | – | – | – | – | – | – | – |
| COc1nc2c(c(=O)[nH]1)N=C(c1ccc([N+](=O)[O-])cc1)CC(c1ccccc1)N2 (stereo not drawn) | > 100 µM | > 100 µM | > 100 µM | > 100 µM | – | > 100 µM | > 100 µM | > 100 µM | > 100 µM | > 100 µM | > 100 µM | – | – | – | – | – | – | – | – | – |
| NS(=O)(=O)c1ccc(NCc2cccc3c(=O)c4ccc(Cl)cc4oc23)cc1 | > 52.6 µM | > 80 µM | > 68.8 µM | > 100 µM | > 100 µM | > 67 µM | > 100 µM | > 51.3 µM | > 70.7 µM | > 100 µM | > 100 µM | – | – | – | – | – | – | – | – | – |
| O=[N+]([O-])c1ccc(-c2ccc([C@H]3CC(c4cc(F)c(Cl)cc4Cl)=NN3)o2)cc1 | 35.1 µM | 32.9 µM | > 100 µM | 41 µM | > 100 µM | > 100 µM | > 100 µM | 77.1 µM | > 100 µM | – | – | – | – | – | – | – | – | – | – | – |
| CC12CCC(C(=Nc3ccc([N+](=O)[O-])cc3)C1=O)C2(C)C (stereo not drawn) | – | 99.5 µM | 57.3 µM | – | 59 µM | > 100 µM | > 100 µM | 59.3 µM | 92.9 µM | > 100 µM | 37.4 µM | – | – | – | – | – | – | – | – | – |
| O=C(O)OC12CCCCCC1C(=O)C1CCCCC12 (stereo not drawn) | > 100 µM | > 100 µM | – | > 100 µM | > 100 µM | – | > 100 µM | > 100 µM | > 100 µM | > 100 µM | > 100 µM | – | – | – | – | – | – | – | – | – |
| C/C(=C\COP(=O)(O)CP(=O)(O)O)CC/C=C(\C)CNc1ccccc1 | > 100 µM | > 100 µM | > 100 µM | > 100 µM | > 100 µM | > 100 µM | > 100 µM | – | > 100 µM | > 100 µM | > 100 µM | – | – | – | – | – | – | – | – | – |
| O[C@@H]1CCCCN1Cc1cc2cc3c(cc2c2cc(OCc4ccccc4)ccc12)OCO3 | 4.61 µM | – | 3.11 µM | 8.05 µM | 4.05 µM | 2.73 µM | 3.03 µM | – | 3.16 µM | 3.31 µM | 2.94 µM | 0.176 µM | 1.68 µM | 0.666 µM | 2.08 µM | 1.33 µM | 1.59 µM | 1.59 µM | 1.55 µM | 1.62 µM |
| O=C(c1ccccc1)N1N=C(C(F)(F)F)CC1(O)C(F)(F)F (stereo not drawn) | > 100 µM | > 100 µM | – | > 100 µM | > 100 µM | > 100 µM | > 100 µM | > 100 µM | > 100 µM | > 100 µM | > 100 µM | – | – | – | – | – | – | – | – | – |
| O=[N+]([O-])c1cccc(-c2ccc([C@H]3CC(c4ccc(Cl)cc4)=NN3)o2)c1 | 90.8 µM | – | > 100 µM | 29.1 µM | 42.8 µM | > 100 µM | 88.5 µM | 32.7 µM | – | > 100 µM | – | – | – | – | – | – | – | – | – | – |
| CC1=C(C(N)=O)C(c2ccncc2)C(C#N)C(=O)N1 (stereo not drawn) | > 100 µM | > 100 µM | > 100 µM | > 100 µM | > 100 µM | > 100 µM | > 100 µM | > 100 µM | > 100 µM | – | > 100 µM | – | – | – | – | – | – | – | – | – |
| CC(=O)C1=C(C)N2C(=NC3=C(CCc4ccccc43)C2c2ccc(Cl)cc2)S1 (stereo not drawn) | > 96.6 µM | > 100 µM | > 100 µM | 55.3 µM | > 100 µM | > 100 µM | > 100 µM | – | > 100 µM | > 100 µM | > 100 µM | – | – | – | – | – | – | – | – | – |
| CN1CN(c2ccccc2)C2(CCN(CCCN(C)c3ccc(F)cc3)CC2)C1=O | 62.1 µM | 44.1 µM | 34.6 µM | 54.7 µM | 44.9 µM | 29.2 µM | 28.3 µM | – | 31.3 µM | 65.9 µM | 37.9 µM | – | – | – | – | – | – | – | – | – |
| C=C1C(=O)O[C@H]2[C@@H]3O[C@@](C)(CC/C=C(\C)CCC[C@@H]2C)[C@H](O)C[C@@H]13 | 81.5 µM | 2.96 µM | 35.6 µM | – | 17.4 µM | 15.6 µM | 27.8 µM | > 100 µM | 26.2 µM | 24.9 µM | 38.8 µM | – | – | – | – | – | – | – | – | – |
| O=C(NNC(=O)c1cc2ccccc2[nH]1)c1cc2ccccc2[nH]1 | > 100 µM | – | > 100 µM | > 100 µM | > 100 µM | > 100 µM | > 100 µM | > 100 µM | > 100 µM | > 100 µM | > 100 µM | – | – | – | – | – | – | – | – | – |
| CCOC(=O)n1c(=O)nc2c3c(ncn21)Oc1c(c(-c2ccccc2)nn1-c1ccccc1)C3c1ccc(Cl)cc1 (stereo not drawn) | 2.72 µM | 3.17 µM | – | – | 3.07 µM | 2.9 µM | 3.26 µM | 3.5 µM | 2.89 µM | 3.01 µM | 3.18 µM | – | – | – | – | – | – | – | – | – |
| COc1ccc2c(c1)SC1=Nc3sc4cc(OC)ccc4[n+]3CN12 | > 100 µM | > 100 µM | > 100 µM | 25.1 µM | > 100 µM | 31.4 µM | > 100 µM | 24.4 µM | 71.9 µM | > 100 µM | – | – | – | – | – | – | – | – | – | – |
| COC(=O)C#CC1(O)C=CC(=O)C=C1 | 0.758 µM | 6.28 µM | 2.85 µM | 0.0794 µM | 5.22 µM | – | > 41.8 µM | 15.2 µM | 2.3 µM | > 48.1 µM | 1.67 µM | – | – | – | – | – | – | – | – | – |
| CCOC(=O)c1c2ccccc2n2c(=O)n(-c3ccccc3)nnc12 | > 69.5 µM | > 100 µM | > 100 µM | – | > 100 µM | > 100 µM | > 49.1 µM | > 25.1 µM | > 100 µM | > 100 µM | > 100 µM | – | – | – | – | – | – | – | – | – |
